Assay results published in patent US20260191924A1, “METHODS AND COMPOSITIONS FOR TREATING VIRAL INFECTIONS” (DST Pharma, Inc., priority 2020, published 2026).

Assays:
FCV F9 [1] = assay: Effect of 5,7,3′,4′-tetrarydroxyflavon-3-ol C4-C8 dimers on FCV F9 infection of CRFK cells; type: cell-based, feline calicivirus (cat kidney CRFK cells); settings: 0.1% dimers, added before, with or after virus (FIG. 6)
Description: 50 μl of virus was added to 450 μl complete EMEM to create a 10^−1 viral mix. A series of dilutions made from this mix up to 10^−8. Virus was added to all wells by loading 250 μl from each dilution to the designated wells. 3 well repeats were prepared. Purified 5, 7, 3′, 4′-tetrarydroxyflavon-3-ol C4-C8 dimers was diluted to 0.1% in complete EMEM.
For experiments in which 5, 7, 3′, 4′-tetrarydroxyflavon-3-ol C4-C8 dimers was added before the virus, 5, 7, 3′, 4′-tetrarydroxyflavon-3-ol C4-C8 dimers was diluted to 0.1% using MM (1:100), added to cells and incubated for 1 hour before the virus was added to the cells.
For experiments in which 5, 7, 3′, 4′-tetrarydroxyflavon-3-ol C4-C8 dimers was added simultaneously with the virus, the virus was diluted in 0.1% purified complete EMEM, added to wells, incubated for 1 hour, then complete EMEM was added to the wells.
For experiments in which 5, 7, 3′, 4′-tetrarydroxyflavon-3-ol C4-C8 dimers was added after viral infection, viral dilutions were added to wells, incubated for 1 hour, 0.1% complete EMEM was added to the wells. The medium was changed to complete EMEM after 60 minutes.

FCV F9 [2] = assay: Effect of quercetin on FCV F9 infection of CRFK cells; type: cell-based, feline calicivirus (cat kidney CRFK cells); settings: 0.1% quercetin, added 1 hour before, with, or 1 hour after virus (FIG. 4)
Description: 50 μl of the virus was added to 450 μl HBSS making a 10^−1 viral titer mix. A series of dilutions made from this mix up to 10^−8. Virus was added to all wells by loading 250 μl from each dilution to the designated wells, same as for viral titer. 3 well repeats were prepared. Quercetin was prepared at 10% quercetin in DMSO.
For experiments in which quercetin was added before viral infection, the quercetin was diluted to 0.1% using MM (1:100), added to cells, and incubated for 1 hour.
For experiments in which quercetin was added at the same time as viral infection, the virus was diluted in 0.1% quercetin MM/DMSO, added to wells, incubated for 1 hour, and then MM was added.
For experiments in which quercetin was added after viral infection, viral dilutions were added to the cells, incubated for 1 hour, then 0.1% quercetin in MM/DMSO was added. The medium was changed to MM after 60 minutes.

SMILES | effect against FCV infection (FCV F9 [1]) | inhibition of FCV F9 infection of CRFK cells (FCV F9 [2])
Oc1cc(O)c2c(c1)OC(c1ccc(O)c(O)c1)C(O)C2c1c(O)cc(O)c2c1OC(c1ccc(O)c(O)c1)C(O)C2 (centres unmarked) [5,7, 3′, 4′-tetrahydroxyflavan-3-ol C4-C8 dimers] | effective against FCV infection comparable to quercetin and better than rutin | 
O=c1c(O)c(-c2ccc(O)c(O)c2)oc2cc(O)cc(O)c12 [quercetin, 3, 3′, 4′, 5,7-pentahydroxyfivanone] |  | significantly inhibited
